{
  "source": "patent US20160287571A1",
  "about": "“PHARMACEUTICAL COMPOSITIONS COMPRISING ANTIBACTERIAL AGENTS” (priority 2013, published 2016)",
  "format_in_all_cases": "cell-based, Acinetobacter baumannii",
  "key": {"[1]": {"tested_on": "A. baumannii G 156 (OXA 51, OXA 23)", "assay": "MIC in Muller Hinton Agar (CLSI agar dilution)", "conditions": "Acinetobacter baumannii", "description": "(§1) The antibacterial activity of combinations according to the invention against resistant bacterial strains was investigated. Minimum Inhibitory Concentration (MIC) for the combinations according to invention was determined in Muller Hinton Agar (MHA) (BD, USA) according to Clinical and Laboratory Standards Institute (CLSI) recommendations (Clinical and Laboratory Standards Institute (CLSI), Performance Standards for Antimicrobial Susceptibility Testing, 20th Informational Supplement, M 100-S20, Volume 30, No. 1, 2010). Typically, the test strains were adjusted to deliver about 10^4 CFU per spot with a multipoint inoculator (Applied Quality Services, UK). The plates were pored with MHA containing doubling concentration range of the test combinations according to invention. The plates were inoculated and were incubated at 35° C. for 18 hours."}, "[2]": {"tested_on": "A. baumannii J 144 (OXA 51, OXA 23)", "assay": "MIC in Muller Hinton Agar (CLSI agar dilution)", "conditions": "Acinetobacter baumannii", "description": "as §1"}, "[3]": {"tested_on": "A. baumannii M 126 (OXA 51, OXA 23)", "assay": "MIC in Muller Hinton Agar (CLSI agar dilution)", "conditions": "Acinetobacter baumannii", "description": "as §1"}, "[4]": {"tested_on": "A. baumannii NCTC 13301 (OXA 51, OXA 23)", "assay": "MIC in Muller Hinton Agar (CLSI agar dilution)", "conditions": "Acinetobacter baumannii", "description": "as §1"}, "[5]": {"tested_on": "A. baumannii NCTC 13302 (OXA 51, OXA 25)", "assay": "MIC in Muller Hinton Agar (CLSI agar dilution)", "conditions": "Acinetobacter baumannii", "description": "as §1"}, "[6]": {"tested_on": "A. baumannii NCTC 13303 (OXA 51, OXA 26)", "assay": "MIC in Muller Hinton Agar (CLSI agar dilution)", "conditions": "Acinetobacter baumannii", "description": "as §1"}, "[7]": {"tested_on": "A. baumannii NCTC 13304 (OXA 51, OXA 27)", "assay": "MIC in Muller Hinton Agar (CLSI agar dilution)", "conditions": "Acinetobacter baumannii", "description": "as §1"}, "[8]": {"tested_on": "A. baumannii NCTC 13305 (OXA 51, OXA 58)", "assay": "MIC in Muller Hinton Agar (CLSI agar dilution)", "conditions": "Acinetobacter baumannii", "description": "as §1"}, "[9]": {"tested_on": "A. baumannii Q 1460648 (OXA 51, OXA 23)", "assay": "MIC in Muller Hinton Agar (CLSI agar dilution)", "conditions": "Acinetobacter baumannii", "description": "as §1"}, "[10]": {"tested_on": "A. baumannii NCTC 13302 (OXA 51, OXA 25)", "assay": "Time kill study", "conditions": "for Bacterial count: agent alone at 8 mcg/ml, initial count 6.54 log CFU/ml", "description": "(§2) The synergistic killing effect of the combinations according to invention was studied using time kill studies. In a typical time kill study, freshly grown cultures were diluted to the required cell density (initial starting inoculum) in Cation adjusted Muller Hinton broth medium (BD, USA). The antibacterial agents (either alone or in combination) at the required concentrations were added into the culture-containing medium. The samples were incubated under shaking condition (120 rpm) at 37° C. Enumeration of viable bacterial count was done every 2 hour by diluting in normal saline and plating on to the Tryptic Soya Agar plates (BD, USA). The plates were incubated for 24 hours to arrive at the viable bacterial count. The results are expressed in terms of Log CFU per […]. In general, the decrease of 1 Log CFU/ml, corresponds to 90% killing of bacteria. Similarly, 2 Log CFU/ml reductions indicates 99% killing of bacteria and 3 Log CFU/ml reductions is equal to 99.9% killing of bacteria."}, "[11]": {"tested_on": "A. baumannii NCTC 13304 (OXA 51, OXA 27)", "assay": "Time kill study", "conditions": "for Bacterial count: agent alone at 8 mcg/ml, initial count 6.06 log CFU/ml", "description": "as §2"}},
  "note": "Read-outs that look alike come from different tables or passages of the source.",
  "data": [
    {"smiles": "CC1(C)[C@H](C(=O)O)N2C(=O)C[C@H]2S1(=O)=O", "note": "[Sulbactam, sulbactam]", "values": [
      {"measurement": "MIC", "setting": "[1]; read-out: MIC of Sulbactam, In presence of Compound of Formula (I) (4 mcg/ml), G 156", "result": 4, "unit": "µg/mL"},
      {"measurement": "MIC", "setting": "[1]; read-out: MIC of Sulbactam, In presence of Compound of Formula (I) (8 mcg/ml), G 156", "result": 2, "unit": "µg/mL"},
      {"measurement": "MIC", "setting": "[1]; agent alone, A. baumannii G 156", "result": 8, "unit": "µg/mL"},
      {"measurement": "MIC", "setting": "[2]; read-out: MIC of Sulbactam, In presence of Compound of Formula (I) (4 mcg/ml), J 144", "result": 2, "unit": "µg/mL"},
      {"measurement": "MIC", "setting": "[2]; read-out: MIC of Sulbactam, In presence of Compound of Formula (I) (8 mcg/ml), J 144", "result": 1, "unit": "µg/mL"},
      {"measurement": "MIC", "setting": "[2]; agent alone, A. baumannii J 144", "result": 16, "unit": "µg/mL"},
      {"measurement": "MIC", "setting": "[3]; read-out: MIC of Sulbactam, In presence of Compound of Formula (I) (4 mcg/ml), M 126", "result": 8, "unit": "µg/mL"},
      {"measurement": "MIC", "setting": "[3]; read-out: MIC of Sulbactam, In presence of Compound of Formula (I) (8 mcg/ml), M 126", "result": 2, "unit": "µg/mL"},
      {"measurement": "MIC", "setting": "[3]; agent alone, A. baumannii M 126", "result": 32, "unit": "µg/mL"},
      {"measurement": "MIC", "setting": "[4]; NCTC13301, read-out: MIC of Sulbactam, In presence of Compound of Formula (I) (4 mcg/ml), NCTC 13301", "result": 4, "unit": "µg/mL"},
      {"measurement": "MIC", "setting": "[4]; NCTC13301, read-out: MIC of Sulbactam, In presence of Compound of Formula (I) (8 mcg/ml), NCTC 13301", "result": 2, "unit": "µg/mL"},
      {"measurement": "MIC", "setting": "[4]; NCTC13301, agent alone, A. baumannii NCTC 13301", "result": 32, "unit": "µg/mL"},
      {"measurement": "MIC", "setting": "[5]; NCTC13302, read-out: MIC of Sulbactam, In presence of Compound of Formula (I) (4 mcg/ml), NCTC 13302", "result": 4, "unit": "µg/mL"},
      {"measurement": "MIC", "setting": "[5]; NCTC13302, read-out: MIC of Sulbactam, In presence of Compound of Formula (I) (8 mcg/ml), NCTC 13302", "result": 2, "unit": "µg/mL"},
      {"measurement": "MIC", "setting": "[5]; NCTC13302, agent alone, A. baumannii NCTC 13302", "result": 32, "unit": "µg/mL"},
      {"measurement": "MIC", "setting": "[6]; NCTC13303, read-out: MIC of Sulbactam, In presence of Compound of Formula (I) (4 mcg/ml), NCTC 13303", "result": 8, "unit": "µg/mL"},
      {"measurement": "MIC", "setting": "[6]; NCTC13303, read-out: MIC of Sulbactam, In presence of Compound of Formula (I) (8 mcg/ml), NCTC 13303", "result": 4, "unit": "µg/mL"},
      {"measurement": "MIC", "setting": "[6]; NCTC13303, agent alone, A. baumannii NCTC 13303", "result": 16, "unit": "µg/mL"},
      {"measurement": "MIC", "setting": "[7]; NCTC13304, read-out: MIC of Sulbactam, In presence of Compound of Formula (I) (4 mcg/ml), NCTC 13304", "result": 2, "unit": "µg/mL"},
      {"measurement": "MIC", "setting": "[7]; NCTC13304, read-out: MIC of Sulbactam, In presence of Compound of Formula (I) (8 mcg/ml), NCTC 13304", "result": 1, "unit": "µg/mL"},
      {"measurement": "MIC", "setting": "[7]; NCTC13304, agent alone, A. baumannii NCTC 13304", "result": 8, "unit": "µg/mL"},
      {"measurement": "MIC", "setting": "[8]; NCTC13305, read-out: MIC of Sulbactam, In presence of Compound of Formula (I) (4 mcg/ml), NCTC 13305", "result": 2, "unit": "µg/mL"},
      {"measurement": "MIC", "setting": "[8]; NCTC13305, read-out: MIC of Sulbactam, In presence of Compound of Formula (I) (8 mcg/ml), NCTC 13305", "result": 1, "unit": "µg/mL"},
      {"measurement": "MIC", "setting": "[8]; NCTC13305, agent alone, A. baumannii NCTC 13305", "result": 4, "unit": "µg/mL"},
      {"measurement": "MIC", "setting": "[9]; read-out: MIC of Sulbactam, In presence of Compound of Formula (I) (4 mcg/ml), Q 1460648", "result": 4, "unit": "µg/mL"},
      {"measurement": "MIC", "setting": "[9]; read-out: MIC of Sulbactam, In presence of Compound of Formula (I) (8 mcg/ml), Q 1460648", "result": 2, "unit": "µg/mL"},
      {"measurement": "MIC", "setting": "[9]; agent alone, A. baumannii Q 1460648", "result": 16, "unit": "µg/mL"},
      {"measurement": "Bacterial count", "setting": "[10]; 2 hours", "result": 5.74, "unit": "Log CFU/ml"},
      {"measurement": "Bacterial count", "setting": "[10]; 4 hours", "result": 5.09, "unit": "Log CFU/ml"},
      {"measurement": "Bacterial count", "setting": "[10]; 6 hours", "result": 6.04, "unit": "Log CFU/ml"},
      {"measurement": "Bacterial count", "setting": "[10]; 8 hours", "result": 7.46, "unit": "Log CFU/ml"},
      {"measurement": "Effect on bacterial counts throughout the duration of the study (in words)", "setting": "[10]; A. baumannii NCTC 13302, summary of Table 3", "result": "did not reduce the bacterial counts"},
      {"measurement": "Bacterial count", "setting": "[11]; 2 hours", "result": 7.73, "unit": "Log CFU/ml"},
      {"measurement": "Bacterial count", "setting": "[11]; 4 hours", "result": 7.07, "unit": "Log CFU/ml"},
      {"measurement": "Bacterial count", "setting": "[11]; 6 hours", "result": 8.2, "unit": "Log CFU/ml"},
      {"measurement": "Effect on bacterial counts throughout the duration of the study (in words)", "setting": "[11]; A. baumannii NCTC 13304, summary of Table 4", "result": "did not reduce the bacterial counts"}
    ]}
  ]
}
